We go through 9 compounds from PubChem BioAssay (NCI).

Test systems include A498 renal; CCRF-CEM leukemia; COLO 205 colon; DU-145 prostate; HOP-62 NSCLC; HOP-92 NSCLC; LOX IMVI melanoma; MOLT-4 leukemia; NCI-H460 lung; NCI-H522 lung; SF-268 CNS; SK-OV-3 ovarian; SR leukemia; SW-620 colon; T-47D breast; HL-60(TB) leukemia; NCI/ADR-RES ovarian; RXF 393 renal.
Common to all, as to assay: NCI tumour cell line growth inhibition, 48 h

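Five compound concentrations were applied to cells in 96-well plates for 48 hours; endpoints were derived by simple linear interpolation of the resulting dose-response curve. TGI: total growth inhibition.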

`O=C1CCCCC/C1=C\c1ccc(F)cc1`: the TGI is over 100 µM in the test with A498 renal; 59.8 µM in the test with CCRF-CEM leukemia; over 100 µM in the test on COLO 205 colon; over 100 µM in the test on DU-145 prostate; over 100 µM with HOP-62 NSCLC; over 100 µM with HOP-92 NSCLC. Moreover, the TGI with LOX IMVI melanoma, with MOLT-4 leukemia, with NCI-H460 lung, with NCI-H522 lung, with SF-268 CNS and with SK-OV-3 ovarian was over 100 µM throughout. Moreover, the TGI with SR leukemia, with SW-620 colon and in the test with T-47D breast was over 100 µM each time.

As for `O=c1cc(-c2ccccc2)[nH]c2cc(F)c(F)cc12`, the TGI was over 62.8 µM in the test with A498 renal; over 100 µM in the test with CCRF-CEM leukemia; 34.7 µM with COLO 205 colon; 34.1 µM with DU-145 prostate; 3.14 µM with HL-60(TB) leukemia; over 100 µM with HOP-62 NSCLC. Moreover, the TGI is over 100 µM in the test on HOP-92 NSCLC; over 100 µM in the test with LOX IMVI melanoma; over 100 µM in the test on MOLT-4 leukemia; over 100 µM in the test with NCI-H460 lung; 10.8 µM in the test on NCI-H522 lung; over 19.6 µM in the test with NCI/ADR-RES ovarian. The TGI is 0.616 µM in the test on RXF 393 renal; over 20.8 µM in the test with SF-268 CNS; over 56.1 µM with SK-OV-3 ovarian; over 100 µM in the test on SR leukemia; over 100 µM with SW-620 colon.

As to `COc1ccc2c(c1)c(=O)c1ccccc1n2/C=C/C(=O)O`, the TGI in the test on A498 renal was over 100 µM; in the test with CCRF-CEM leukemia it was over 67.8 µM; in the test on COLO 205 colon, over 100 µM; with HL-60(TB) leukemia, over 66.6 µM; in the test with HOP-62 NSCLC, over 100 µM; in the test on HOP-92 NSCLC it was over 100 µM. Also, the TGI was over 65.6 µM in the test with LOX IMVI melanoma; over 100 µM with MOLT-4 leukemia; over 100 µM with NCI-H460 lung; over 100 µM in the test with NCI-H522 lung; over 100 µM with RXF 393 renal; over 100 µM with SF-268 CNS. For the same compound, the TGI is over 100 µM in the test on SK-OV-3 ovarian, over 57.4 µM in the test with SR leukemia and over 100 µM with SW-620 colon.

On to `C/C(=N\NS(=O)(=O)c1ccc(C)cc1)C(CN1CCOCC1)C(c1ccccc1)c1c(O)c2ccccc2oc1=O` (configuration not stated), for which the TGI in the test with A498 renal is over 100 µM; with CCRF-CEM leukemia, over 100 µM; in the test with COLO 205 colon, over 100 µM; in the test with HL-60(TB) leukemia it was 76.1 µM; in the test with HOP-62 NSCLC, over 100 µM; in the test with HOP-92 NSCLC it was over 100 µM. Moreover, the TGI in the test with LOX IMVI melanoma, in the test on NCI-H460 lung, in the test on NCI-H522 lung, in the test with RXF 393 renal, in the test with SF-268 CNS and in the test with SK-OV-3 ovarian was over 100 µM throughout. The TGI is 56.2 µM in the test with SR leukemia and over 100 µM in the test with SW-620 colon.

For the compound `C=CC(Cl)(CBr)CCC(Br)=C(C)C` (configuration not stated), the TGI in the test on A498 renal was over 100 µM; with CCRF-CEM leukemia it was over 100 µM; with COLO 205 colon, 33.4 µM; with DU-145 prostate, over 100 µM; in the test with HOP-62 NSCLC, over 100 µM; with HOP-92 NSCLC it was 35.2 µM. In addition, the TGI in the test with LOX IMVI melanoma was 37.8 µM; with MOLT-4 leukemia, over 100 µM; in the test on NCI-H460 lung, 38 µM; in the test on NCI-H522 lung, 36.8 µM; in the test on NCI/ADR-RES ovarian it was 91.2 µM; with RXF 393 renal it was 38.5 µM. In addition, the values for the TGI in the test on SF-268 CNS, in the test with SR leukemia and with SW-620 colon were 43.3 µM, over 100 µM and 29.2 µM, respectively.

Consider `CC(=O)O[C@H]1C(=O)[C@@]2(C)[C@H]([C@H](OC(=O)c3ccccc3)[C@]3(O)C[C@H](OC(=O)[C@H](OC(=O)OCCC(O)CO)[C@@H](NC(=O)c4ccccc4)c4ccccc4)C(C)=C1C3(C)C)[C@]1(OC(C)=O)CO[C@@H]1C[C@@H]2O` (some centres not stated), for which the TGI in the test on A498 renal was 28.9 µM; in the test with CCRF-CEM leukemia, 12.2 µM; in the test on HL-60(TB) leukemia, under 0.01 µM; with HOP-62 NSCLC, 19.9 µM; with HOP-92 NSCLC, 61.6 µM; with LOX IMVI melanoma it was 22 µM. Moreover, the TGI is 24.9 µM in the test on MOLT-4 leukemia; 19 µM with NCI-H460 lung; under 0.01 µM with NCI-H522 lung; over 43.4 µM in the test with NCI/ADR-RES ovarian; 18.5 µM in the test with RXF 393 renal; over 56.9 µM with SF-268 CNS. Further, the TGI is over 100 µM with SK-OV-3 ovarian and over 55.8 µM with SW-620 colon.

In the case of `C=CCCCC1CCCNC1=O` (configuration not stated), the TGI in the test with A498 renal, in the test on DU-145 prostate, in the test with HOP-62 NSCLC, with HOP-92 NSCLC, with MOLT-4 leukemia and in the test with NCI-H460 lung was over 100 µM throughout. Also, the TGI in the test on NCI-H522 lung, with RXF 393 renal, in the test with SF-268 CNS, in the test with SK-OV-3 ovarian, in the test on SW-620 colon and with T-47D breast was over 100 µM throughout.

Turning to `CCOC(=O)Cc1nnc2c(-c3ccccc3)nc3ccccc3n12`, the TGI in the test with A498 renal is over 100 µM; in the test on CCRF-CEM leukemia, over 100 µM; with COLO 205 colon, over 100 µM; with DU-145 prostate, 73.4 µM; in the test with HL-60(TB) leukemia it was over 100 µM; in the test with HOP-62 NSCLC, 27.6 µM. Moreover, the TGI in the test with HOP-92 NSCLC is over 100 µM; in the test with LOX IMVI melanoma, over 100 µM; in the test on MOLT-4 leukemia, over 100 µM; in the test with NCI-H460 lung, over 100 µM; in the test with NCI/ADR-RES ovarian it was over 100 µM; in the test on RXF 393 renal, 36.4 µM. Further, the TGI was 39.7 µM in the test on SF-268 CNS, 67.6 µM in the test on SK-OV-3 ovarian, over 100 µM with SR leukemia and over 100 µM in the test on SW-620 colon.

For the compound `COc1cc(C2=NN(C)C(c3ccc([N+](=O)[O-])o3)C2)cc(OC)c1OC` (configuration not stated), the TGI was over 100 µM in the test on A498 renal; 72 µM in the test with CCRF-CEM leukemia; over 100 µM in the test on COLO 205 colon; over 100 µM with HL-60(TB) leukemia; over 100 µM with HOP-62 NSCLC; over 100 µM in the test on HOP-92 NSCLC. Besides, the TGI in the test on LOX IMVI melanoma, with MOLT-4 leukemia, in the test with NCI-H460 lung, in the test on NCI-H522 lung, in the test with SF-268 CNS and in the test with SK-OV-3 ovarian was over 100 µM throughout. For the same compound, the TGI is 38.6 µM in the test on SR leukemia and 30.6 µM in the test on SW-620 colon.
